Assay results: patent US20090123389A1, “Methods for modulating Th17 cell development in the treatment and prevention of cellulite” (priority 2007, published 2009)
Several values for one entry are separate records, joined by “and”; a condition that tells them apart may be missing. Equal entries are not always repeated. Where two headings read alike, the source gives them in different places.

What was measured:
[1] = system: amino acid response (AAR) pathway; test: eIF2α phosphorylation and ATF4 protein in T cells (immunoblot); format: cell-based, mouse
Procedure: Whole cell lysates were prepared 4 hours-post TCR activation and immunoblotting was performed with the indicated antibodies. ATF4 protein is indicated by arrowhead. NS—non-specific band.
FIG. 12E is an illustration depicting immunoblot analysis of purified CD4^+ CD25^− T cells activated through the TCR for the indicated times without exogenous cytokines in the presence of either 10 nM MAZ1310 or 10 nM HF as indicated. Whole cells lysates were prepared during the timecourse and immunoblotting was performed.
Cultures were further supplemented with either 10 nM MAZ1310 or 10 nM HF as indicated. Whole cell lysates were generated 4 hours after activation and immunoblotting was performed. Microarray data were generated from triplicate samples and all other data are representative of at least 2 similar experiments.
Western blotting: Whole cell lysates were generated from T cells activated for the indicated times. For STAT3 and Smad2/3 western blots cells were harvested, washed in PBS and lysed in 50 mM Tris, pH 7.4, 0.1% SDS, 1% Triton-×100, 140 mM NaCl, 1 mM EDTA, 1 mM EGTA supplemented with protease inhibitors tablets (Roche—Germany), 1 mM NaF and 1 mM Na3VO4. For eIF2α and ATF4 western blots, cells were harvested as above and lysed in 50 mM Tris, pH 7.4, 2% SDS, 20% glycerol and 2 mM EDTA supplemented with protease and phosphatase inhibitors as above. All lysates were cleared via centrifugation and 15-30 μg of protein was resolved by SDS-PAGE. Protein was transferred to nitrocellulose membranes, blocked and blotted using specific antibodies. Antibodies used for western blot analysis were anti-phospho-Smad2, anti-STAT3 (pY705), anti-STAT3, anti-eIF2α^pS51, anti-eIF2α, anti-GCN2^pT898, anti-GCN2 (all from cell signaling technology, Danvers, Mass.). Anti-ATF4/CREB2 and anti-β-actin were purchased from Santa Cruz biotechnology (Santa Cruz, Calif.). HRP-conjugated secondary antibodies were all purchased from Sigma, with the exception of HRP-conjugated anti-armenian hamster antibody (Jackson Immunoresearch—West Grove, Pa.).

CD4+ CD25− T cells = test: Th17 differentiation / IL-17 expression of activated CD4+ CD25− T cells (TGFβ plus IL-6); format: cell-based, mouse; conditions: for IC50: Mus musculus, T-cell
Procedure: Low doses of halofuginone (HF) were tested to determine the ability of HF to enhance Treg differentiation, while suppressing Th17 differentiation. Naïve CD4+ T cells (CD4+ CD25−) were isolated from the spleen and peripheral lymph nodes of C57B/6 mice. T cells were then activated using anti-CD3 (0.3 μg/ml) and anti-CD28 (0.5 μg/ml) antibodies either in media alone (row 1, 4), TGFβ alone (3 ng/ml—row 2, 5) or TGFβ (3 ng/ml) plus IL-6 (30 ng/ml) (row 3, 6). […] T cells were cultured for 3 days and CD25 and Foxp3 expression (Treg marker genes) was determine by FACS staining and flow cytometric analyses. Simultaneously, T cells were harvested and re-stimulated for 4 hours using phorbol myristic acetate (PMA; 10 nM), Ionomycin (1 μM) and cytokine secretion was prevented using brefeldin A (20 μg/ml). Following stimulation, the production of IL-17 and IFNγ were determined by intracellular staining and analyzed via flow cytometry.
The dose-response of HF on CD4+ T cell proliferation, activation (i.e. CD25 upregulation) and differentiation to Th1, Th2 and Th17 lineages were evaluated. Purified murine naïve CD4+ CD25− T cells were activated using anti-CD3 (0.3 μg/ml) and anti-CD28 (0.5 μg/ml) antibodies and varying amounts of HF was added to each T cell culture condition (1.25 nM-40 nM). CD4+ T cell proliferation was monitored by CFSE dilution on day 3-post activation and CD25 expression was evaluated by FACS staining 2 days after activation. For T cell differentiation experiments, naïve T cells were activated as above in the presence of Th1 (IL-12 (20 ng/ml) plus anti-IL-4 (1.5 μg/ml)), Th2 (IL-4 (50 ng/ml) plus anti-IFNγ (0.5 mg/ml)) or Th17 (TGFβ (3 ng/ml) plus IL-6 (30 ng/ml)) polarizing conditions plus titrating amounts of HF (1.25 nM-40 nM) or MAZ1310 (40 nM). […] All cytokine expression was determined by intracellular staining following PMA+Ionomycin+Brefeldin A re-stimulation and all data was normalized to control (MAZ1310)-treated cells. […] Biol., vol. 80:1-8 (2006).
Cytokines, antibodies and T cell culture: Purified CD4^+ CD25^− T cells were activated in vitro as previously described (I. M. Djuretic et al., Nat Immunol 8, 145 (2007)) using 0.3 μg/ml hamster anti-mouse CD3 (clone 145-2C11) (ATCC—Manassas, Va.) and 0.5 μg/ml hamster anti-mouse CD28 (BD Pharmingen, San Jose, Calif.). Activated cell cultures were differentiated using the following combinations of cytokines and antibodies: iTreg=recombinant human TGFβ1 (3 ng/ml; R&D systems, Minneapolis, Minn.), Th17=TGFβ1 (3 ng/ml) plus recombinant mouse IL-6 (30 ng/ml, R&D systems). Th1 and Th2 differentiation was performed as previously described. (I. M. Djuretic et al., Nat Immunol 8, 145 (2007)). Human IL-2 supernatant (National Cancer Institute) was used in culture at 0.01 U/ml and was added at 48 hours-post activation when T cells were split into tissue culture wells lacking CD3 and CD28 antibodies, with the exception of Th17 cultures that were maintained in the absence of IL-2. All reagents were added at the time of T cell activation and again at 48-hours post activation unless indicated otherwise. For some experiments, purified CD4^+ CD25^− T cells, CD8^+ T cells or B cells were labeled with 1 μM CFSE (Invitrogen) prior to activation in accordance with manufacturers instructions.
MAZ1310 was generated by chemical derivatization of halofuginone and was used at equal concentrations as a negative control.

O=C(CC1NCCCC1O)Cn1cnc2cc(Br)c(Cl)cc2c1=O (racemic) [HF, 7-bromo-6-chloro-3-[3-(3-hydroxy-2-piperidinyl)-2-oxopropyl]-4(3H)-quinazolinone]
time at which eIF2α phosphorylation reached maximum levels ([1]; 10 nM HF): ≤ 2 h
time until which ATF4 protein continued to accumulate ([1]; 10 nM HF): 4 h
eIF2α phosphorylation in resting naïve T cells and T cells in Th17, ThN, Th1, Th2 and iTreg conditions ([1]; 10 nM HF, 4 hours): induced eIF2α phosphorylation
induction of ATF4 expression by T cell state ([1]; 10 nM HF, 4 hours): in all differentiated T cells but not in naïve T cells
HF concentration at which eIF2α phosphorylation plateaued ([1]; 4 hours-post TCR activation): 5 to 10 nM
HF concentration inducing detectable eIF2α phosphorylation ([1]; 4 hours-post TCR activation): 2.5 nM
HF concentration with highest ATF4 expression levels ([1]; 4 hours-post TCR activation): 5 to 10 nM
HF concentration with reduced ATF4 expression ([1]; 4 hours-post TCR activation): 20 to 40 nM
IL-17 expression in cultures where IFNγ and IL-4 were blocked by neutralizing antibodies (CD4+ CD25− T cells): reduced IL-17 expression
window of HF addition at start of culture giving most pronounced inhibition of IL-17 expression (CD4+ CD25− T cells; 10 nM HF added at different times after activation): 12 h
IL-17 expression in T cells lacking Foxp3 (CD4+ CD25− T cells; 10 nM HF, TGFβ plus IL-6): strongly repressed
Th17 differentiation of T cells expressing STAT3C (CD4+ CD25− T cells; 10 nM HF, TGFβ plus IL-6): remained capable of differentiating into Th17 cells
Il17 and Il17f mRNA expression (CD4+ CD25− T cells; 10 nM HF, Th17 conditions, 4 days): impaired expression
IC50 (CD4+ CD25− T cells; 96 h, percentage of IL-17+ IFNγ− cells after restimulation on day 4-5, read-out: IC50 of repression of Th17 differentiation): 3.6 nM
IC50 (CD4+ CD25− T cells; in vitro, read-out: 50% inhibition of Th17 cell development): 2 to 3 nM
Th17 differentiation of cells expressing YFP or no transgene (CD4+ CD25− T cells; TAT-Cre treated T cells, TGFβ plus IL-6): strongly impaired
HF concentration that inhibited expression of IL-17 (CD4+ CD25− T cells; TGFβ/IL-6 treated T-cells): 2.5 to 10 nM and 2.2 to 10 nM
IL-17 production (CD4+ CD25− T cells; low concentrations of HF (1-10 nM)): strongly reduced
fold lower doses for effects on Th17 differentiation than for general inhibition of T-cell proliferation and differentiation (CD4+ CD25− T cells; versus proliferation and Th1 or Th2 differentiation): 5- to 10 fold and ~10 fold
